Results from publication PMC9297976 (Journal of Applied Toxicology, 2021).

How the values were obtained:
medaka ARβ (mArβ) [1] = molecular target: T1, medaka ARβ (mArβ) (Oryzias latipes, UniProt D1MV73); experiment: Medaka ARβ reporter gene assay, antagonist assay; type: cell-based, Japanese medaka (Oryzias latipes); conditions: 11‐KT spiked at 50 nM (D); MAC = 1.0 × 10^−5 M
T1 sequence (D1MV73 1-744): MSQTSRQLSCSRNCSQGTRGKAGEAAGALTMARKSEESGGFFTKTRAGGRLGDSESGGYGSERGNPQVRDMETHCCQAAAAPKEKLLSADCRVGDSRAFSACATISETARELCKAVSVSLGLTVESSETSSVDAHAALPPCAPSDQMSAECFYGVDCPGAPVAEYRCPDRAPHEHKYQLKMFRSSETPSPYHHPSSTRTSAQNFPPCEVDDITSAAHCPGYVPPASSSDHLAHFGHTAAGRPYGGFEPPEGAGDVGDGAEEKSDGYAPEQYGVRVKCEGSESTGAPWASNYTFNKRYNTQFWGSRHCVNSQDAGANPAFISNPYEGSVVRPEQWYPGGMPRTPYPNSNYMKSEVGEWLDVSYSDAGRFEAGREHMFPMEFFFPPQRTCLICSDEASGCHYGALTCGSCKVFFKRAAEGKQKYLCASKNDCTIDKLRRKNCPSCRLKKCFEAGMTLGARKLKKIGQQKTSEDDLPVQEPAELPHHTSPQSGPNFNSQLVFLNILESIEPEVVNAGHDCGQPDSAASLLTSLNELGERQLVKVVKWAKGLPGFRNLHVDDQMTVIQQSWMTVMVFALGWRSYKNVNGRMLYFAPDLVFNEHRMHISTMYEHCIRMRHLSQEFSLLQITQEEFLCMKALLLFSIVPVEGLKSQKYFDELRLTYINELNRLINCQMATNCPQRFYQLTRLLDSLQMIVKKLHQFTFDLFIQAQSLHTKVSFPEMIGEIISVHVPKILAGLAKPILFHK

medaka Esr1 (mEsr1) [2] = molecular target: T2, medaka Esr1 (mEsr1) (Oryzias latipes, UniProt P50241); experiment: Medaka Esr1 reporter gene assay, antagonist assay; type: cell-based, Japanese medaka (Oryzias latipes); conditions: E2 spiked at 1.0 nM (B); MAC = 1.0 × 10^−5 M
T2 sequence (P50241 1-620): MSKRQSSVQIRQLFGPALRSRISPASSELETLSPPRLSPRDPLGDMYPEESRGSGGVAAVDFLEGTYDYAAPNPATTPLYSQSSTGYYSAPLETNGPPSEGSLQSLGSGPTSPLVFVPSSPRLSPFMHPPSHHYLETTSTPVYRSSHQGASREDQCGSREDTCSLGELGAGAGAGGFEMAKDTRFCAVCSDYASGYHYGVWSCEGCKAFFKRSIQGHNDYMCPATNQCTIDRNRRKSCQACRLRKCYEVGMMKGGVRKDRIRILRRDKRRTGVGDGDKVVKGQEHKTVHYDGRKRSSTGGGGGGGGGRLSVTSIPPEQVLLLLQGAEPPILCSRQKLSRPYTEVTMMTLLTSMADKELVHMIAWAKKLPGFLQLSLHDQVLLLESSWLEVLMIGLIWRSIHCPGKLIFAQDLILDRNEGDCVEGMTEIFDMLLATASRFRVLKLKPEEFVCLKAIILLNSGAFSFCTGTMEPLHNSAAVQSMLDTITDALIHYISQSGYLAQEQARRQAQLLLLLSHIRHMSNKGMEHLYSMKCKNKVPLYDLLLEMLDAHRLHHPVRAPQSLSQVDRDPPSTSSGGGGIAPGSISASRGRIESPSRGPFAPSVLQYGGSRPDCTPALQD

medaka ARβ (mArβ) [3] = molecular target: T1, medaka ARβ (mArβ); experiment: Medaka ARβ reporter gene assay, agonist assay; type: cell-based, Japanese medaka (Oryzias latipes); conditions: MAC = 1.0 × 10^−5 M
[4] = system: Japanese medaka (Oryzias latipes); experiment: Fish Short‐Term Reproduction Assay; type: in vivo; conditions: for GSI Female / GSI Male / HSI Female / HSI Male / Length Female / Length Male / Weight Female / Weight Male: completion of exposure
medaka Esr1 (mEsr1) [5] = molecular target: T2, medaka Esr1 (mEsr1); experiment: cell-based; parameters: species or system Japanese medaka (Oryzias latipes)
[6] = 177 μg/L measured, 21 d, sig. ↑ vs control
[7] = 353 μg/L measured, 21 d, sig. ↑ vs control
[8] = 353 μg/L measured, 21 d, sig. ↓ vs control
[9] = measured concentration 54.4 μg/L
[10] = measured concentration 104 μg/L
[11] = measured concentration 177 μg/L
[12] = measured concentration 353 μg/L

SMILES: Oc1cc(Cl)ccc1Oc1ccc(Cl)cc1Cl [TCS, Triclosan]
- Antagonistic activity (medaka ARβ (mArβ) [1]): NE (MAC = 1.0 × 10^−5 M)^(D)
- Antagonistic activity (medaka Esr1 (mEsr1) [2]): NE (MAC = 1.0 × 10^−5 M)^(B)
- Agonistic activity (medaka ARβ (mArβ) [3]): NE (MAC = 1.0 × 10^−5 M)
- Fertility rate ([4]; 54.4 μg/L measured, 21 d): 96 ± 3.3%
- Hepatic VTG, female ([4]; 54.4 μg/L measured, 21 d): 616 ± 220 ng/mg‐liver
- Hepatic VTG, male ([4]; 54.4 μg/L measured, 21 d): 3.3 ± 4.7 ng/mg‐liver
- Mortality ([4]; 54.4 μg/L measured, 21 d): 4.2%
- Mortality, number of dead fish ([4]; 54.4 μg/L measured, 21 d): 1
- Number of fertilized eggs (per female per day) ([4]; 54.4 μg/L measured, 21 d): 25 ± 4.0
- Number of total eggs (per female per day) ([4]; 54.4 μg/L measured, 21 d): 26 ± 3.8
- SSC female (joint plates with papillary processes) ([4]; 54.4 μg/L measured, 21 d): 0 ± 0
- Fertility rate ([4]; 104 μg/L measured, 21 d): 98 ± 1.4%
- Hepatic VTG, female ([4]; 104 μg/L measured, 21 d): 698 ± 32 ng/mg‐liver
- Hepatic VTG, male ([4]; 104 μg/L measured, 21 d): 4.5 ± 2.7 ng/mg‐liver
- Mortality ([4]; 104 μg/L measured, 21 d): 13%
- Mortality, number of dead fish ([4]; 104 μg/L measured, 21 d): 3
- Number of fertilized eggs (per female per day) ([4]; 104 μg/L measured, 21 d): 24 ± 1.0
- Number of total eggs (per female per day) ([4]; 104 μg/L measured, 21 d): 24 ± 1.1
- SSC female (joint plates with papillary processes) ([4]; 104 μg/L measured, 21 d): 0 ± 0
- Fertility rate ([4]; 177 μg/L measured, 21 d): 97 ± 1.5%
- Number of fertilized eggs (per female per day) ([4]; 177 μg/L measured, 21 d): 18 ± 7.0
- Number of total eggs (per female per day) ([4]; 177 μg/L measured, 21 d): 19 ± 7.2
- SSC female (joint plates with papillary processes) ([4]; 177 μg/L measured, 21 d): 0 ± 0
- Hepatic VTG, female [4, 6]: 955 ± 73 ng/mg‐liver
- Mortality [4, 6]: 29%
- Mortality, number of dead fish [4, 6]: 7
- Hepatic VTG, male ([4]; 177 μg/L measured, 21 d, sig. ↓ vs control): 0.9 ± 0.1 ng/mg‐liver
- Fertility rate ([4]; 353 μg/L measured, 21 d): 98 ± 0.8%
- SSC female (joint plates with papillary processes) ([4]; 353 μg/L measured, 21 d): 0 ± 0
- Hepatic VTG, female [4, 7]: 1,111 ± 265 ng/mg‐liver
- Mortality [4, 7]: 50%
- Mortality, number of dead fish [4, 7]: 12
- Hepatic VTG, male [4, 8]: 1.0 ± 0.3 ng/mg‐liver
- Number of fertilized eggs (per female per day) [4, 8]: 10 ± 1.9
- Number of total eggs (per female per day) [4, 8]: 10 ± 2.0
- Change of hepatic VTG levels in females (in words) ([4]; 21 d): significant increase
- Fecundity, number of total eggs (in words) ([4]; 21 d): statistically significant decrease
- minimal effective concentration ([4]; Oryzias latipes, 504 h, read-out: LOECmVTG): > 0.353 µg/mL
- Fertility rate (in words) ([4]; chemicals with significant decrease of number of total eggs): no significant effect
- LOECTOX ([4]; lowest observed effect concentration on mortality): 177 µg/L
- GSI Female [4, 9]: 7.3 ± 0.4%
- GSI Male [4, 9]: 1.00 ± 0.13%
- HSI Female [4, 9]: 3.8 ± 0.40%
- HSI Male [4, 9]: 1.6 ± 0.23%
- Length Female [4, 9]: 33.5 ± 0.7 mm
- Length Male [4, 9]: 33.6 ± 0.7 mm
- Weight Female [4, 9]: 449 ± 11 mg
- Weight Male [4, 9]: 379 ± 28 mg
- GSI Female [4, 10]: 7.5 ± 0.6%
- GSI Male [4, 10]: 1.00 ± 0.23%
- HSI Female [4, 10]: 3.7 ± 0.79%
- HSI Male [4, 10]: 1.5 ± 0.09%
- Length Female [4, 10]: 32.8 ± 1.1 mm
- Length Male [4, 10]: 34.8 ± 0.7 mm
- Weight Female [4, 10]: 409 ± 20 mg
- Weight Male [4, 10]: 417 ± 13 mg
- GSI Female [4, 11]: 7.9 ± 1.4%
- GSI Male [4, 11]: 0.90 ± 0.17%
- HSI Female [4, 11]: 3.8 ± 0.30%
- HSI Male [4, 11]: 1.4 ± 0.41%
- Length Female [4, 11]: 32.4 ± 1.3 mm
- Length Male [4, 11]: 33.3 ± 0.9 mm
- Weight Female [4, 11]: 425 ± 45 mg
- Weight Male [4, 11]: 380 ± 66 mg
- GSI Female [4, 12]: 8.7 ± 1.1%
- GSI Male [4, 12]: 1.20 ± 0.73%
- HSI Female [4, 12]: 4.5 ± 0.23%
- HSI Male [4, 12]: 2.4 ± 1.08%
- Length Female [4, 12]: 33.2 ± 0.9 mm
- Length Male [4, 12]: 33.3 ± 1.5 mm
- Weight Female [4, 12]: 437 ± 30 mg
- Weight Male [4, 12]: 361 ± 57 mg
- Agonistic activity PC10 (medaka Esr1 (mEsr1) [5]): PC10 = 2.0 × 10^−6 M
- In vitro positive: Esr (medaka Esr1 (mEsr1) [5]; mode of action in which EC50 or PC10 was obtained in RGA): Esr
